Results on four substances are retold here after US6458026B1, “Integrin-targeting vectors having transfection activity” (ICH Productions Limited, priority 1997, dated 2002).

Assay [1] relates to integrins. The note with it: cited from earlier work.
Assay [2] relates to human lung fibroblasts (HFL-1 cells). The assay is described as follows: Antisense transfection: thrombin-induced proliferation of HFL-1 cells. It is filed as cell-based. The note with it: thrombin-treated cells. The procedure:
Thrombin stimulates proliferation of human lung fibroblasts. Thrombin-treated human lung fibroblasts (HFL-1 cells) proliferated 53% in response to thrombin. 24 hours before treatment with thrombin, HFL-1 cells were treated with an LID complex comprising [K]16-peptide 6, lipofectin and a 20-mer antisense oligonucleotide directed against the thrombin receptor PAR-1 in the optimal ratio and mixing order prepared as described in the Materials and Methods section and the Examples above. The antisense oligonucleotide-containing complex was in contact with the cells for 4 hours. 24 hours after the start of the treatment with the complex, treatment with thrombin was carried out.

Read-outs that look alike come from different tables or passages of the source.

Take GACDCRGDCFCA [Peptide 5]: the integrin specificity result in assay [1] was “Peptide 5 (αv)”; in assay [1] (listed as peptide 5), “has high affinity for integrin αv but is not αv-specific”. Take thrombin: the “proliferation in response to thrombin” value in assay [2] was 53%. In the case of GACRRETAWACG [Peptide 6], in assay [1], the integrin specificity entry is “α5β1-specific”. For GACRGDMFGCA [Peptide 1], in assay [1], the integrin specificity entry is “has affinity for α5 and αv integrins but is non-specific”.
